The source of these data is ChEMBL document CHEMBL1201862, “PubChem BioAssay data set” (2004).

Each structure is given as a SMILES string.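 Where inhibition never reached the appropriate level, the endpoint shown equals the highest concentration tested. Otherwise, values were interpolated linearly from a five-concentration, 48-hour dose response in 96-well plates. At the GI50, growth is halved.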 Active and inactive are the calls of the source. No stated cut-off is given here; in the data, active = GI50 up to about 1.1 µM and inactive = higher.

Test systems include DMS-273; RPMI-8226; HOP-62; HCT-15; LOX IMVI; Malme-3M; DMS-114; OVCAR-3; MOLT-4; UO-31; SW-620; NCI-H23; SN12C; HOP-92; UACC-257; RXF 393; TK-10.
Common to all, as to experiment: NCI-60 cell line screen, 48 h

Turning to `Cc1cccc2c(=O)c([Se]c3coc4c(C)cccc4c3=O)coc12`, the GI50 was 21.4 µM (inactive) in the assay on DMS-273; 29.2 µM (inactive) in the assay with RPMI-8226; 11.9 µM (inactive) in the assay on HOP-62; 19.4 µM in the assay on HCT-15; 20 µM (inactive) in the assay on LOX IMVI; 19.1 µM (inactive) with Malme-3M. The GI50 with DMS-114 was 17.7 µM (inactive); with OVCAR-3 it was 25.2 µM (inactive); in the assay with MOLT-4, 38.6 µM (inactive); in the assay with UO-31 it was 14.9 µM (inactive); in the assay with SW-620, 20.4 µM (inactive); with NCI-H23, 17.2 µM (inactive). Moreover, the GI50 is 18.5 µM (inactive) in the assay with SN12C; 20.8 µM (inactive) with HOP-92; 18.2 µM (inactive) with UACC-257; 17.8 µM (inactive) in the assay with RXF 393; 29.9 µM (inactive) in the assay with TK-10.
Consider `N=C(N)NS(=O)(=O)c1ccc(Nc2c3ccccc3nc3c(C(=O)N4CCN(CCO)CC4)cccc23)cc1`, for which the GI50 was > 100 µM (inactive) in the assay on DMS-273; > 100 µM (inactive) in the assay with HOP-62; above 100 µM in the assay with HCT-15; > 100 µM (inactive) in the assay with LOX IMVI; > 100 µM (inactive) with Malme-3M; > 100 µM (inactive) in the assay with DMS-114. For the same molecule, the GI50 in the assay with OVCAR-3, with MOLT-4, in the assay with UO-31, in the assay on SW-620, with NCI-H23 and with SN12C was > 100 µM (inactive) in each case. Also, the GI50 in the assay on HOP-92, in the assay on UACC-257, in the assay on RXF 393 and in the assay with TK-10 was > 100 µM (inactive) in each case.
Consider `Cc1cccc(C(C)C)c1NC(=O)CC1C(=O)Nc2ccccc2S1(=O)=O` (centres undefined), for which the GI50 in the assay on DMS-273 was 6.03 µM (inactive); in the assay with RPMI-8226 it was 3.14 µM (inactive); in the assay with HOP-62, 54.6 µM (inactive); with HCT-15, 5.11 µM; with LOX IMVI, 22.2 µM (inactive); in the assay on Malme-3M it was 16.3 µM (inactive). The GI50 with DMS-114 was 13 µM (inactive); in the assay on OVCAR-3 it was 12.2 µM (inactive); in the assay on MOLT-4 it was 0.408 µM (active); with UO-31, 13.5 µM (inactive); in the assay with SW-620, 7.03 µM (inactive); with NCI-H23 it was 9.06 µM (inactive). In addition, the GI50 in the assay with SN12C is 23.2 µM (inactive); with HOP-92, 11.8 µM (inactive); with UACC-257 it was 23.6 µM (inactive); with RXF 393, 10.2 µM (inactive); in the assay with TK-10 it was 29 µM (inactive).
As to `Fc1cccc(C2SCc3nc4ccccc4n32)c1F` (centres undefined), the GI50 was 19.4 µM (inactive) with DMS-273; 31.1 µM (inactive) with RPMI-8226; > 100 µM (inactive) in the assay on HOP-62; 59.3 µM with HCT-15; 84.3 µM (inactive) in the assay on LOX IMVI; 38 µM (inactive) in the assay on Malme-3M. Further, the GI50 in the assay on DMS-114 was 23.8 µM (inactive); in the assay with OVCAR-3, 29.1 µM (inactive); with MOLT-4, 21.1 µM (inactive); in the assay with UO-31, 41.9 µM (inactive); with SW-620, > 100 µM (inactive); in the assay on NCI-H23 it was 49.7 µM (inactive). For the same molecule, the GI50 is 89.7 µM (inactive) in the assay with SN12C; 23 µM (inactive) in the assay on HOP-92; 32.7 µM (inactive) in the assay with UACC-257; 54.2 µM (inactive) in the assay on RXF 393; 42 µM (inactive) with TK-10.
In the case of `CCCCNC(=O)C1C2CCC(O2)C1C(=O)O` (centres undefined), the GI50 is 32.4 µM (inactive) in the assay with DMS-273; 20.9 µM (inactive) in the assay on RPMI-8226; 34.7 µM (inactive) in the assay with HOP-62; 23.7 µM in the assay with HCT-15; 16.5 µM (inactive) in the assay with LOX IMVI; 21.5 µM (inactive) in the assay with Malme-3M. For the same molecule, the GI50 with DMS-114 was 13.9 µM (inactive); with OVCAR-3, 16 µM (inactive); in the assay on MOLT-4, 18.1 µM (inactive); with UO-31, 64.6 µM (inactive); with SW-620, 1.71 µM (inactive); with NCI-H23, 29.4 µM (inactive). The GI50 in the assay with SN12C was 14 µM (inactive); in the assay on HOP-92, 12 µM (inactive); in the assay on UACC-257, 22.8 µM (inactive); in the assay on RXF 393 it was 2.07 µM (inactive); in the assay on TK-10 it was 18.1 µM (inactive).
For the molecule `Cc1ccc(NC(=O)/C(C#N)=C/c2ccccc2)c(C)c1`, the GI50 in the assay with DMS-273 was > 100 µM (inactive); in the assay with RPMI-8226, > 100 µM (inactive); with HOP-62, > 100 µM (inactive); with HCT-15, above 100 µM; in the assay on Malme-3M, > 100 µM (inactive); in the assay with DMS-114 it was > 100 µM (inactive). The GI50 in the assay on OVCAR-3, in the assay on MOLT-4, in the assay with UO-31, in the assay on SW-620, in the assay with NCI-H23 and in the assay on SN12C was > 100 µM (inactive) in each case. In addition, the GI50 in the assay with HOP-92, in the assay on UACC-257, in the assay on RXF 393 and with TK-10 was > 100 µM (inactive) throughout.
Turning to `COC(=O)C1=C(O)C(O)=C(C(=O)OC)C1`, the GI50 in the assay with DMS-273 was > 100 µM (inactive); in the assay on RPMI-8226, > 100 µM (inactive); with HOP-62 it was > 100 µM (inactive); with HCT-15 it was above 100 µM; with LOX IMVI, > 100 µM (inactive); with Malme-3M, > 100 µM (inactive). Moreover, the GI50 in the assay with DMS-114, with OVCAR-3, in the assay with MOLT-4, in the assay on UO-31, in the assay with SW-620 and with NCI-H23 was > 100 µM (inactive) throughout. Also, the GI50 in the assay on SN12C, in the assay with HOP-92, in the assay on UACC-257, in the assay on RXF 393 and with TK-10 was > 100 µM (inactive) each time.
For `COc1ccc(C(=O)C(c2ccc(OC)cc2)C2C(=O)Oc3ccccc32)cc1` (centres undefined), the GI50 in the assay with DMS-273 was > 10 µM (inactive); in the assay on RPMI-8226, > 10 µM (inactive); in the assay on HOP-62, > 10 µM (inactive); with HCT-15, above 10 µM; in the assay on LOX IMVI, > 10 µM (inactive); with Malme-3M, > 10 µM (inactive). Moreover, the GI50 in the assay with DMS-114 is > 10 µM (inactive); in the assay with OVCAR-3, > 10 µM (inactive); with MOLT-4 it was > 10 µM (inactive); in the assay on UO-31, 22.5 µM (inactive); with SW-620, > 10 µM (inactive); in the assay with NCI-H23, > 10 µM (inactive). The GI50 in the assay with SN12C, in the assay with HOP-92, in the assay on UACC-257, in the assay with RXF 393 and with TK-10 was > 10 µM (inactive) each time.
On to `CCCCCCCC/C=C\CCCCCCCC(=O)NCCN(CCN)C(=O)CCCCCCC/C=C\CCCCCCCC`, for which the GI50 is > 100 µM (inactive) in the assay on DMS-273; > 100 µM (inactive) in the assay with RPMI-8226; > 100 µM (inactive) with HOP-62; above 100 µM in the assay with HCT-15; > 100 µM (inactive) in the assay with LOX IMVI; > 100 µM (inactive) with Malme-3M. Besides, the GI50 was > 100 µM (inactive) with DMS-114; 78.7 µM (inactive) with OVCAR-3; > 100 µM (inactive) in the assay on MOLT-4; > 100 µM (inactive) with UO-31; > 100 µM (inactive) with SW-620; > 100 µM (inactive) in the assay on NCI-H23. Moreover, the GI50 with SN12C, in the assay with HOP-92, in the assay on UACC-257 and in the assay with TK-10 was > 100 µM (inactive) in each case.
With `COc1ccccc1NC(=O)c1nc2ccc([N+](=O)[O-])cc2nc1C`, the GI50 in the assay with DMS-273 is > 100 µM (inactive); in the assay on RPMI-8226, > 100 µM (inactive); with HOP-62 it was 97.1 µM (inactive); in the assay on HCT-15, above 100 µM; in the assay on LOX IMVI, > 100 µM (inactive); in the assay on Malme-3M it was > 100 µM (inactive). Further, the GI50 in the assay with DMS-114, in the assay on OVCAR-3, with MOLT-4, with UO-31, with SW-620 and in the assay on NCI-H23 was > 100 µM (inactive) each time. Also, the GI50 in the assay with SN12C was > 100 µM (inactive); in the assay on HOP-92, 51.8 µM (inactive); with UACC-257, > 100 µM (inactive); in the assay with TK-10 it was > 100 µM (inactive).
In the case of `CCCCCCCCCCC/C(=N/O)c1ccc(O)c2ncccc12`, the GI50 was 1.51 µM (inactive) in the assay with DMS-273; 4.26 µM (inactive) with HOP-62; 2.37 µM (inactive) in the assay with LOX IMVI; 2.47 µM (inactive) in the assay on Malme-3M; 2 µM (inactive) in the assay on DMS-114; 2.8 µM (inactive) with UO-31. In addition, the GI50 was 3.86 µM (inactive) in the assay on SW-620; 10.4 µM (inactive) in the assay on NCI-H23; 0.275 µM (active) in the assay on HOP-92; 3.25 µM (inactive) in the assay on UACC-257; 7.67 µM (inactive) in the assay on RXF 393; 7.35 µM (inactive) in the assay with TK-10.
Take `OC1C2C=CCC1CCC2` (centres undefined): the GI50 with DMS-273, in the assay on RPMI-8226, with HOP-62, in the assay with LOX IMVI, in the assay with Malme-3M and in the assay on DMS-114 was > 100 µM (inactive) throughout. The GI50 in the assay on OVCAR-3, with MOLT-4, with UO-31, with SW-620, in the assay with NCI-H23 and in the assay with SN12C was > 100 µM (inactive) in each case. Also, the GI50 in the assay on HOP-92, with UACC-257, in the assay on RXF 393 and in the assay with TK-10 was > 100 µM (inactive) in each case.
